# Test results reported in patent publication US5866700A, “Solid-phase synthesis of oligoribonucleotides” (Hoechst Aktiengesellschaft, priority 1993, dated 1999).
# Assay: Stability test: half-life for deprotection in 0.05N HCl/MeOH (Table 1)
# Format: physicochemical
# Details: 0.05N HCl/MeOH (1:2), 30 mmolar solution, 20° C., pH 2.0; values +/- 10%
# Protocol: (§1) To test the stability, the following uridine derivatives were incubated in 0.05N HCl/MeOH (1:2), 30 mmolar solution, 20° C., pH 2.0 (Table 1) or in 80% acetic acid, 30 mmolar solution, 20° C. (Table 2) and the half-life for deprotection was determined: […]
row,Structure (SMILES),t1/2 (half-life for deprotection)
1,CC(OCCc1ccc([N+](=O)[O-])cc1[N+](=O)[O-])O[C@@H]1[C@H](O)[C@@H](CO)O[C@H]1n1ccc(=O)[nH]c1=O (stereo partly shown),approx. 1200 min
2,CC(OCCS(=O)(=O)c1ccccc1)O[C@@H]1[C@H](O)[C@@H](CO)O[C@H]1n1ccc(=O)[nH]c1=O (stereo partly shown),52 h
3,CC(OCCSc1ccccc1)O[C@@H]1[C@H](O)[C@@H](CO)O[C@H]1n1ccc(=O)[nH]c1=O (stereo partly shown),3.83 h
4,CC(OCCS(C)(=O)=O)O[C@@H]1[C@H](O)[C@@H](CO)O[C@H]1n1ccc(=O)[nH]c1=O (stereo partly shown),52 h
5,CC(OCc1ccc([N+](=O)[O-])cc1)O[C@@H]1[C@H](O)[C@@H](CO)O[C@H]1n1ccc(=O)[nH]c1=O (stereo partly shown),32.67 h
6,COc1ccc(COC(C)O[C@@H]2[C@H](O)[C@@H](CO)O[C@H]2n2ccc(=O)[nH]c2=O)cc1OC (stereo partly shown),1.37 h
7,CC(OCc1ccc([N+](=O)[O-])cc1[N+](=O)[O-])O[C@@H]1[C@H](O)[C@@H](CO)O[C@H]1n1ccc(=O)[nH]c1=O (stereo partly shown),approx. 14000 min
8,CC(OCc1ccccc1[N+](=O)[O-])O[C@@H]1[C@H](O)[C@@H](CO)O[C@H]1n1ccc(=O)[nH]c1=O (stereo partly shown),37.33 h
9,CC(OCCCl)O[C@@H]1[C@H](O)[C@@H](CO)O[C@H]1n1ccc(=O)[nH]c1=O (stereo partly shown) [CH2CH2Cl],10.3 h
10,CC(OCc1ccccc1)O[C@@H]1[C@H](O)[C@@H](CO)O[C@H]1n1ccc(=O)[nH]c1=O (stereo partly shown) [drawing 52],2.92 h
11,CC(OCC[N+](=O)[O-])O[C@@H]1[C@H](O)[C@@H](CO)O[C@H]1n1ccc(=O)[nH]c1=O (stereo partly shown) [CH2CH2NO2],67.17 h
12,CC(OCCc1ccc([N+](=O)[O-])cc1)O[C@@H]1[C@H](O)[C@@H](CO)O[C@H]1n1ccc(=O)[nH]c1=O (stereo partly shown),3.7 h
13,CC(OCCC#N)O[C@@H]1[C@H](O)[C@@H](CO)O[C@H]1n1ccc(=O)[nH]c1=O (stereo partly shown) [CH2 CH2CN],56.17 h
14,CC(OCCN1C(=O)c2ccccc2C1=O)O[C@@H]1[C@H](O)[C@@H](CO)O[C@H]1n1ccc(=O)[nH]c1=O (stereo partly shown),14 h
15,COc1ccc(COC(C)O[C@@H]2[C@H](O)[C@@H](CO)O[C@H]2n2ccc(=O)[nH]c2=O)cc1 (stereo partly shown),1.22 h

# Assay: Stability test: half-life for deprotection in 80% acetic acid (Table 2)
# Format: physicochemical
# Details: 30 mmolar solution, 20° C., Values +/- 5%
# Protocol: as §1
row,Structure (SMILES),t1/2 (half-life for deprotection)
1,CC(OCc1ccc(O)c(F)c1)O[C@@H]1[C@H](O)[C@@H](CO)O[C@H]1n1ccc(=O)[nH]c1=O (stereo partly shown),0.8 h
2,CC(OCc1cc(Cl)c(O)cc1Cl)O[C@@H]1[C@H](O)[C@@H](CO)O[C@H]1n1ccc(=O)[nH]c1=O (stereo partly shown),4.17 h
3,CC(OCc1ccc(OC(=O)OCCc2ccc([N+](=O)[O-])cc2)c(F)c1)O[C@@H]1[C@H](O)[C@@H](CO)O[C@H]1n1ccc(=O)[nH]c1=O (stereo partly shown),5.08 h
4,CC(OCc1ccc(O)c(Cl)c1)O[C@@H]1[C@H](O)[C@@H](CO)O[C@H]1n1ccc(=O)[nH]c1=O (stereo partly shown),0.917 h
5,CC(OCc1ccc(OC(=O)OCCc2ccc([N+](=O)[O-])cc2)cc1)O[C@@H]1[C@H](O)[C@@H](CO)O[C@H]1n1ccc(=O)[nH]c1=O (stereo partly shown),1.73 h
6,CC(OCc1cc(Cl)c(OC(=O)OCCc2ccc([N+](=O)[O-])cc2)cc1Cl)O[C@@H]1[C@H](O)[C@@H](CO)O[C@H]1n1ccc(=O)[nH]c1=O (stereo partly shown),21.67 h
7,CC(OCc1c(Cl)cccc1Cl)O[C@@H]1[C@H](O)[C@@H](CO)O[C@H]1n1ccc(=O)[nH]c1=O (stereo partly shown),18.8 h
8,CC(OCc1ccc(O)cc1)O[C@@H]1[C@H](O)[C@@H](CO)O[C@H]1n1ccc(=O)[nH]c1=O (stereo partly shown),0.35 h
9,CC(OCc1ccccc1)O[C@@H]1[C@H](O)[C@@H](CO)O[C@H]1n1ccc(=O)[nH]c1=O (stereo partly shown) [drawing 64],1.1 h
10,CC(OCc1cc(Cl)c(OC(=O)C(C)(C)C)cc1Cl)O[C@@H]1[C@H](O)[C@@H](CO)O[C@H]1n1ccc(=O)[nH]c1=O (stereo partly shown),22.58 h
